The text below walks through data of PMC8063026 (Frontiers in Pharmacology, 2021).

The conditions of data set [1]: cited from earlier work.
Data set [2] can be described thus: LC-MS/MS detection of mephedrone metabolites in a human urine sample. It is filed as in vivo. The arrangement: key to Detected in urine samples: detected (+); not detected (−). Particulars: for detection in human urine sample: achiral LC-MS/MS, after enzymatic workup. The text has this: The biological specimen, human urine, was provided by the Department of Chemical Analytics, Seibersdorf Laboratories GmbH. The sample was taken from a subject postmortem in a fatal case of drug overdose. […] Given this fact, we assumed that also the metabolites would be detectable in sufficient quantity. To evaluate the presence of any metabolites whatsoever in the urine sample we designed an achiral separation protocol for liquid chromatography and we coupled it with triple quadrupole mass spectrometer. The advantage of LC-MS/MS system is that even if two substances have the same retention time, they can still be differentiated by their fragmentation pattern. More in details, the samples for urine analysis were analyzed using a CTC HTS PAL autosampler (CTC Analytics) and a Thermo Surveyor LC system (Thermo) interfaced to a TSQ Quantum Discovery Max triple quadrupole mass spectrometer (Thermo). A C18 security guard cartridge (4 × 2 mm) (Phenomenex) was used for sample clean-up and the analytical HPLC column was a Kinetex 1.7 μm C18 100Å 150 × 2.1 mm (Phenomenex) and Cortecs T3, 2.7 μm C18 120Å 100 × 2.1 mm (Waters). Column selection was performed by a Maylab Mistraswitch column selector (Maylab Analytical Instruments). The solvents were 0.2% formic acid in water (A) and acetonitrile (B). The temperature of the analytical column was maintained at 40°C. The mass spectrometer was equipped with heated electrospray ionization (ESI) source and was operated in positive ionization mode with a spray voltage set at 4500V. The capillary temperature was adjusted to 320°C. The sheath and auxiliary gas (nitrogen) flow rate was 25 and 10 arbitrary units, respectively. The system was operated in selected […] (srm) mode with argon as the collision gas at a pressure of 1.5 mTorr. For the achiral separation, stem solutions were prepared by weighing the reference substances in volumetric flasks and filling them up with MeOH (99.9%; HPLC grade), creating average concentration of 1 mg/ml. Then dilution solutions were prepared as follows: 10 μL of stem solution was filled up to 5 ml MeOH, creating dilution […]. Samples were prepared from dilution solutions by taking out 25 μL and mixing it together with 25 μL of ISP, 50 μL ISS and filled up to 1 ml with Milli-Q water. The final sample solvent was water/MeOH 9/1. For the enzymatic workup, phosphate buffer (1 ml, 0.8M, pH = 7), β-glucuronidase/arylsulfatase (25 μL) and β-glucuronidase (25 μL) were added to the solutions. The solutions were heated at 50°C during 1 h upon which EtOAc (7 ml) was added. The solution was put into shaker for 10min, following centrifugation for 5 min. The organic phase was separated and evaporated into dryness in stream of pressurized nitrogen. The residue was taken up in 150 μL MQ-water/MeOH 9/1 + 0.4% formic acid, heated at 50°C for 5 min and subjected to LC-MS analysis.
If on one hand the synthesis of putative metabolites allows the establishment of structure activity relationships, on the other hand, it provides pure material to evaluate their presence in human urine samples and determine their pharmacological relevance. To determine the presence of any metabolites in the urine sample, we have designed an achiral separation protocol and coupled the liquid chromatography with triple quadrupole mass spectrometer (LCMS/MS). With the LCMS/MS system two substances with the same retention time, can still be differentiated by their fragmentation pattern. Since metabolites carrying a primary alcohol functionality can form glucuronide and sulfate conjugates, we performed an enzymatic workup of the urine sample in order to cleave them. Apart from the parental drug, we detected 4-OH-MMC and 4-MC (nor-meph) which we have both already identified in our previous publication ([Mayer et al., 2019]), and the two previously uncharacterized metabolites 4-COOH-MC and dihydro-4-MC (Figure 6). […]

The conditions of data set [3]: ref Meyer et al., 2010; cited from earlier work.
For data set [4], the target named is T1, SERT (Homo sapiens, UniProt P31645).
T1 construct: expressed in transfected cells
T1 sequence (P31645 whole entry): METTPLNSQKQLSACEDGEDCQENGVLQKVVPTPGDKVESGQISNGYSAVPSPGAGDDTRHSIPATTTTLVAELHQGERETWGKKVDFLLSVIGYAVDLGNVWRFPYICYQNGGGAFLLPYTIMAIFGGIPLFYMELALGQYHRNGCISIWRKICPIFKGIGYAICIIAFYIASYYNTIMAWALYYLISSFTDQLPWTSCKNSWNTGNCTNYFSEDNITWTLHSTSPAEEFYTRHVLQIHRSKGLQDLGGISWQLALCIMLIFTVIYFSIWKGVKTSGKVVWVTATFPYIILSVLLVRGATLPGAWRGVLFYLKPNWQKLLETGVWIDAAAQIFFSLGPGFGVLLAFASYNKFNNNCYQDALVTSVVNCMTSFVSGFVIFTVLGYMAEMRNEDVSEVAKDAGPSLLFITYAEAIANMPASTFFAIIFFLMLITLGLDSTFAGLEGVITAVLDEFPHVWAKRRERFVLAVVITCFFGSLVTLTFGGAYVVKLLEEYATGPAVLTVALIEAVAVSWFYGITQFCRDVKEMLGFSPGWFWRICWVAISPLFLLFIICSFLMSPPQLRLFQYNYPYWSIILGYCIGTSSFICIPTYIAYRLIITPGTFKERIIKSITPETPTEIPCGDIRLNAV
Kind of data set: Transporter electrophysiology (whole cell patch clamp), HEK293 cells stably expressing SERT. The data set is classed as cell-based. Particulars: compound applied at 30 µM, -60 mV. The procedure:
(§1) Human embryonic kidney 293 cells (HEK293 cells) were cultivated in Dulbecco’s Modified Eagle Medium (DMEM), containing 10% heat-in- activated fetal calf serum (FCS), streptomycin (100 μg x 100 ml−1) and penicillin (100 U × 100 ml−1). Geneticin (50 μg x mL−1) was added to select HEK293 cells stably expressing the human isoforms of DAT, NET and SERT as described earlier ([Mayer et al., 2016a]). Cell lines were maintained in a sub-confluent state in humidified atmosphere (37°C, 5% CO2). For uptake inhibition experiments cells expressing the desired transporter were seeded the days before the experiment (40,000 cells per well) or two days before the experiments (20,000 cells per well) onto poly-D-lysine (PDL) coated 96-well plates 24 h prior to the experiment. In the case of transporter-electrophysiology cells were cultivated in 10 cm dishes and 24 h before the experiments they were detached, and seeded at low density onto PDL-coated 3 cm dishes.
(§2) Transporter electrophysiology was conducted by the means of whole cell patch clamp in HEK293 cells stably expressing DAT or SERT. Substrate-induced currents were recorded under voltage clamp (−60 mV). Cells were continuously superfused with a physiological external solution that contains 140 mM NaCl, 2.5 mM CaCl2, 2 mM MgCl2, 20 mM glucose and 10 mM HEPES, pH = 7.4. The pipette solution contained 133 mM potassium gluconate, 6 mM NaCl, 1 mM CaCl2, 0.7 mM MgCl2, 10 mM HEPES, 10 mM EGTA, pH = 7.2. Currents elicited by mephedrone 30 μM, were measured at room temperature (20–24°C) using an […] amplifier and pClamp 11.2 software (MDS Analytical Technologies). All the solutions perfused onto the cell were applied using a DAD-12 superfusion system and a 8-tube perfusion manifold (ALA Scientific Instruments), which allowed for rapid solution exchange. Current traces were filtered at 1 kHz and digitized at 10 kHz using a Digidata 1,550 (MDS Analytical Technologies). […] For the analysis, passive holding currents were subtracted, and the traces were filtered using a 100-Hz digital Gaussian low-pass filter.

The target of another data set is T2, human NET (Homo sapiens, UniProt P23975).
T2 construct: expressed in transfected cells
T2 sequence (P23975 whole entry): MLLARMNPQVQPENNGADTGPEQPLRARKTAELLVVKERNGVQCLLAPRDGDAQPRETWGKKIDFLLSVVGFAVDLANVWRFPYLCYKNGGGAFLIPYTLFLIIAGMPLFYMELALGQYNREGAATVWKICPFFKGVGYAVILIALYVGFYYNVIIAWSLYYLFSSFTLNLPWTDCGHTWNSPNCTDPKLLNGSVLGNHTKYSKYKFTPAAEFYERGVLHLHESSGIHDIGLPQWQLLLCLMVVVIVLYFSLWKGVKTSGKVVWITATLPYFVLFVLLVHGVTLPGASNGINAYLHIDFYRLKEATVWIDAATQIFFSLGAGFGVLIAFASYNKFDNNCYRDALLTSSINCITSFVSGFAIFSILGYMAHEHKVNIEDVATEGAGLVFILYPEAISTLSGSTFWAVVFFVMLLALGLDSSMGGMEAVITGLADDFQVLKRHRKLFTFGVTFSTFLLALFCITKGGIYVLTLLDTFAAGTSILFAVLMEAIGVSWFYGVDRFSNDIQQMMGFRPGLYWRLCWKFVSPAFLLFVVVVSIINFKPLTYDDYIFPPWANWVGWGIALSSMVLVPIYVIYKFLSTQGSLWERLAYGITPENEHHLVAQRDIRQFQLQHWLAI
Nature of the data set: cell-based.

The target of data set [5] is T3, DAT (Homo sapiens, UniProt Q01959).
T3 construct: expressed in transfected cells
T3 sequence (Q01959 whole entry): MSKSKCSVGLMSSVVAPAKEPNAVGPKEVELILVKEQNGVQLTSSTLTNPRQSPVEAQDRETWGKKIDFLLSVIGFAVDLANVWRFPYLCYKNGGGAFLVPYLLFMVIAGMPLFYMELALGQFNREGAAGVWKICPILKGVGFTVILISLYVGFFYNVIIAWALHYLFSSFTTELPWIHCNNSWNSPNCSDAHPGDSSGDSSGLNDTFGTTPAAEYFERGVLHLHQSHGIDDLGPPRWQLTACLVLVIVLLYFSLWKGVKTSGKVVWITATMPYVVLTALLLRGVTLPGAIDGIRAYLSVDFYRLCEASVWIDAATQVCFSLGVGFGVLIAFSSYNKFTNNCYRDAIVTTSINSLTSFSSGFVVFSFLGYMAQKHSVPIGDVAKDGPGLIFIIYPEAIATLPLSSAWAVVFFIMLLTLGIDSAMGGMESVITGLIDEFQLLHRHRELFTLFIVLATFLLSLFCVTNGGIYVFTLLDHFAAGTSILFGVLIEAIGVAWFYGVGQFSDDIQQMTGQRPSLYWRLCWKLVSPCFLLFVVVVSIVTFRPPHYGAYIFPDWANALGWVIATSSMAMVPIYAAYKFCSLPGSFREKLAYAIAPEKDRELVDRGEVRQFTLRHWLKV
Kind of data set: Transporter electrophysiology (whole cell patch clamp), HEK293 cells stably expressing DAT. It is filed as cell-based. Particulars: compound applied at 30 µM, -60 mV. Here is the method:
as §1, §2

Data set [6] has as its target T3, DAT. Particulars: read-out: IC50 (µM) DAT; mean (95% confidence interval); ref Niello et al. (2019); cited from earlier work.
Data set [7] has as its target T3, DAT. Nature of the data set: cell-based.
The target of data set [8] is T1, SERT. The note with it: cited from earlier work.
The conditions of data set [9]: ref Olesti et al., 2019, cited from earlier work.
Data set [10] has as its target T1, SERT. Nature of the data set: Uptake-inhibition of [3H]5-HT in HEK293 cells stably expressing human SERT. The note with it: pIC50 SERT, QSAR data matrix, from IC50 SERT. The data set is classed as cell-based.
For data set [11], the system named is SERT. The arrangement: method as in Gregg et al., 2015; Mayer et al., 2016b; Mayer et al., 2019. The note with it: ref Gregg et al., 2015, Mayer et al., 2016b, 2019; cited from earlier work.

Where two headings read alike, the source gives them in different places.

`CC(N)C(=O)c1ccc(CO)cc1` (stereo not shown) [4-OH-MC]: the relative abundance in data set [1] (minor metabolites in rats, ref Linhart et al., 2016) is recorded as 0.1–0.2%. Further, in data set [1] (ref Meyer et al., 2010), the “detection in rat urine” value is “could be detected in rat urine”. The “detection in human urine sample” value in [2] was “not found”. For the same molecule, the “detection in human urine” value in data set [3] is given as “not in human urine”.

On to `CNC(C)C(=O)c1ccc(C)cc1` (stereo not shown) [Mephedrone, reference compound], for which the SERT-mediated current result on SERT [4] was “elicited both DAT- and SERT mediated currents”. For the same molecule, the “Selectivity ratio NET/DAT” value on human NET is on record as 1.09. Also, the DAT-mediated current entry at DAT [5] was “elicited both DAT- and SERT mediated currents”. Besides, the IC50 was 3.01 µM at DAT [6] and 8.74 µM at SERT [8] (read-out: IC50 (µM) SERT, mean (95% confidence interval), ref Niello et al. (2019)). Besides, the “Detected in urine samples” value in data set [2] (human urine, mephedrone user, only syn- and anti-configurations could be separated) is on record as “+”. Besides, on DAT [7], the “Selectivity ratio DAT/SERT” value is 2.90. Moreover, in data set [9] (conversion of ng h/ml range), the plasma concentrations was 0.090 to 1.25 µM·h.

Consider `CN[C@@H](C)C(=O)c1ccc(C)cc1` [S-mephedrone, reference compound], for which the IC50 was 2.75 µM at human NET; 10.7 µM at SERT [10]; 0.776 µM on DAT [7] (QSAR data matrix, from IC50 DAT, read-out: pIC50 DAT (converted)); 10.7 µM on SERT [8] (read-out: IC50 SERT, QSAR data matrix, unit inferred, compounds not tested in this paper, source not given, presumably ref Mayer et al., 2019). In the data set with SERT [11], the “potency as releaser of SERT, times higher than R-mephedrone” value is recorded as 40 times.

On to `CNC(C)C(O)c1ccc(C)cc1` (stereo not shown) [dihydro-4-MMC, dihydro-mephedrone, reference compound], for which, in [2], the “detection in human urine sample” value was “did not find”. For the same molecule, the “plasma level as % of the plasma mephedrone” value in data set [9] is 10%.
